Results from article PMC12124432, “Antimicrobial Peptide‐Peptoid Macrocycles from the Polymyxin B2 Chemical Space” (Angewandte Chemie (International Ed. in English), 2025).
In brackets after ≈: the same amount, converted by molar mass. Bridge positions count the residues as written; N and C are the ends. Square brackets hold non-standard residues; d marks the D form. Peptide text beside a SMILES is read from it. * marks the point of attachment. N(3-phenylpropyl)Gly = O=C(O)CNCCCc1ccccc1; Gly(NCH2CH2Ph) = O=C(O)CNCCc1ccccc1; Gly(N-2-aminoethyl) = NCCNCC(=O)O; Gly(N(CH2)3NH2) = NCCCNCC(=O)O; Gly(N-cPent) = O=C(O)CNC1CCCC1; Heptanoyl = CCCCCCC(=O)*; Nphe = O=C(O)CNCc1ccccc1; Octanoyl = CCCCCCCC(=O)*; Dab = NCC[C@H](N)C(=O)O; NPrGly = CCCNCC(=O)O

Key:
P. aeruginosa PAO1 [1] = assay: DiSC3(5) inner-membrane depolarization assay; format: cell-based, Pseudomonas aeruginosa; conditions: 2 µM DiSC3(5), mean ± SD, n = 3
Method: Outer Membrane (NPN) - E. coli
Figure S6. Outer membrane permeability assay with 10 μM NPN, on E. coli W3110.
13. DiSC3(5) Inner-Membrane Depolarization Assay
A single colony of P. aeruginosa PAO1 and E. coli W3110 was grown overnight with shaking […]
(150 rpm) in LB broth (5 mL) at 37 °C. 100 μL of the overnight culture was regrown in 10 […]
mL LB broth with shaking (200 rpm) to the exponential phase OD600 = 1 (10^9 CFU/mL).
Bacteria were washed once with HEPES buffer (5 mM HEPES, 5 mM glucose, pH 7.4) and […]
diluted to OD600 = 0.5. Stock solution of 10 mM of 3,3′ -Dipropylthiadicarbocyanine iodide […]
(DiSC3(5), purchased from Sigma) was prepared in DMSO. Stock solutions of 2 m g/mL of […]
the compounds were prepared in sterilized milli -Q water and diluted to the beginning […]
concentration of 128 μg/mL in 200 μL HEPES buffer. The diluted samples were added to the […]
first well of 96-well plates (black wells, flat bottom, BRAND ® GmbH Wertheim, Germany) […]
and diluted serially by 1/2. […]
DiSC3(5) in HEPES buffer. The plate was measured with a Tecan instrument Infinite M1000 […]
wavelength used was 610 nm ± 5 nm and the emission wavelength 660 nm ± 5 nm. The assay was measured in triplicate and repeated at least two times.[10,11] […]
Saturation determination. […] The fluorescence saturation of DsPMB with LPS was first determined, by titration (0.25 μM increments, up to 5 μM) of the DsPMB into a 3 μg/mL of LPS (10 mM Tris, 10 mM NaCl buffer, pH 7.4), at 37 °C. The fluorescence was recorded with a Jasco spectrofluorometer FP-8300, with the excitation at λex = 340 nm (5 nm slit width) and recorded from 420 to 650 nm. The fluorescence was recorded two minutes after each addition. Saturation was graphically determined, at a concentration of D sPMB ≈ 2.5 μM (λem = 485 nm). Each measurement was determined in triplicates.
Displacement assay. The displacement effect of the various peptides was determined by measuring the reduction of fluorescence intensity, at 37 °C. Initially, DsPMB (2.5 μM) was mixed with LPS (3 μg/mL) and let it react for 15 minutes before recording the fluorescence

P. aeruginosa PAO1 [2] = format: cell-based, Pseudomonas aeruginosa; conditions: for Effect of salt on antibacterial activity against P. aeruginosa: NaCl 0-300 mM in 12.5% Mueller-Hinton broth at pH 8.5; for MIC on P. aeruginosa, 0 mM NaCl / MIC on P. aeruginosa, 100 mM NaCl / MIC on P. aeruginosa, 200 mM NaCl / MIC on P. aeruginosa, 300 mM NaCl: PAO1, pH 8.5
Method: (§1) Minimal Inhibitory Concentration (MIC)
(§2) Antimicrobial activity was assayed for all the peptide-peptoids against P. aeruginosa PAO1, K. pneumoniae NCTC418, E. coli W3110, A. baumannii ATCC 19606, methicillin-resistant S. aureus COL (MRSA) and for selected peptides on P. aeruginosa PA14, as well as the clinical isolates ZEM-1A and ZEM9A, K. pneumoniae OXA-48, Enterobacter cloacae, Stenotrophomonas maltophilia and Staphylococus epidermidis. To determine the Minimal Inhibitory Concentration (MIC), Broth Microdilution method was used. A colony of bacteria was picked and grown in LB medium overnight at 37 °C. The next day, the culture was then regrown in LB medium to log phase (OD600 = 0.6 to 0.8), which lasted approximately 4 hours, and diluted to an OD600 of 0.022 in the desired medium (full MH or 12.5% MH).
(§3) The compounds were prepared as stock solutions of 2 mg/mL in sterilized MilliQ deionized water and then diluted in the desired media (full MH or 12.5% MH) to reach the first concentration tested (32 μg/mL). The compounds were added to the first well of a 96-well sterile, round bottom microtiter plates in polystyrene (TPP®, untreated) and diluted serially by ½ in the desired media (full MH or 12.5% MH), to a final volume of 150 µL/well. To each well was finally added 4 µL of the diluted bacterial suspension (see above), corresponding to approximately 5×10^5 CFU. For each test, two columns of the plate were kept for sterility control (medium only), growth control (medium with bacterial inoculum, no compound). The positive control, Polymyxin B (starting with a concentration of 16 µg/mL) in MH medium with bacterial inoculums, was introduced in the two first lines of the plate. The plates were incubated at 37 °C for ca. 18 hours under static conditions. 15 µL of 3-(4,5-dimethylthiazol-2-yl)-2,5-diphenyltetrazolium bromide (MTT)[7] (1 mg/mL in sterilized MilliQ deionized water) were added to each well and the plates were incubated for 20-30 minutes at room temperature. The […]
(§4) minimal inhibitory concentration (MIC) was defined as the lowest concentration of the compound that inhibits the visible growth of the tested bacteria (yellow) with the unaided eye.
(§5) Minimal Hemolytic Concentration (MHC) […]
(§6) 11. Minimal inhibitory in presence of salt
The same procedure as for the antibacterial activity measurements by minimal inhibitory concentration assay (MIC) was applied. The media, 12.5% Mueller-Hinton broth was this time supplemented with different salt concentrations (0, 100, 200 300 mM NaCl). The MIC activities were then determined against Pseudomonas aeruginosa PAO1 and Escherichia coli […]
Table S6. Minimal inhibitory concentration (MIC) on P. aeruginosa PAO1 as function of salt […]
(§7) All data, in μg/mL, measured against P. aeruginosa PAO1, with or without addition of salt (NaCl). The values were measured in dilute medium (12.5% MH) and at slightly basic pH (pH = 8.5), after incubation for 16-20 h at 37 °C. Values represent two different duplicate MIC determinations.

E. coli W3110 = format: cell-based, Escherichia coli; conditions: for Effect of salt on antibacterial activity against E. coli: NaCl 0-300 mM in 12.5% Mueller-Hinton broth at pH 8.5; for MIC on E. coli, 0 mM NaCl / MIC on E. coli, 100 mM NaCl / MIC on E. coli, 200 mM NaCl / MIC on E. coli, 300 mM NaCl: W3110, pH 8.5
Method: as §1, §2, §3, §4, §5, §6
The same procedure as for the antibacterial activity measurements by minimal inhibitory concentration assay (MIC) was applied. The media, 12.5% Mueller-Hinton broth was this time supplemented with different salt concentrations (0, 100, 200 300 mM NaCl). […]
as §7

| Structure (SMILES) | Inner membrane depolarization (DiSC3(5)) (P. aeruginosa PAO1 [1]) | Effect of salt on antibacterial activity against P. aeruginosa (P. aeruginosa PAO1 [2]) | MIC on P. aeruginosa, 0 mM NaCl (P. aeruginosa PAO1 [2]) | MIC on P. aeruginosa, 100 mM NaCl (P. aeruginosa PAO1 [2]) | MIC on P. aeruginosa, 200 mM NaCl (P. aeruginosa PAO1 [2]) | MIC on P. aeruginosa, 300 mM NaCl (P. aeruginosa PAO1 [2]) | Effect of salt on antibacterial activity against E. coli (E. coli W3110) | MIC on E. coli, 0 mM NaCl (E. coli W3110) | MIC on E. coli, 100 mM NaCl (E. coli W3110) | MIC on E. coli, 200 mM NaCl (E. coli W3110) | MIC on E. coli, 300 mM NaCl (E. coli W3110) |
| --- | --- | --- | --- | --- | --- | --- | --- | --- | --- | --- | --- |
| CCCCCCCC(=O)N(CCc1ccccc1)CC(=O)N[C@@H](CCCCN)C(=O)N[C@@H](CC(N)=O)C(=O)N[C@H]1CCNC(=O)[C@H](CCCCN)NC(=O)CN(CCCN)C(=O)[C@H](CCCCN)NC(=O)CN(CCC)C(=O)[C@H](CCCCN)NC1=O [EB12] (Octanoyl-[Gly(NCH2CH2Ph)]KN[Dab]K[NPrGly]K[Gly(N(CH2)3NH2)]K; lactam 4-C) | induced a depolarization of the inner membrane like PMB2 | inhibited by high salt concentrations | 2 to 4 µg/mL | 32 µg/mL (≈ 26.1 µM) | > 64 µg/mL | > 64 µg/mL | inhibited by high salt concentrations | 1 µg/mL (≈ 0.815 µM) | 2 µg/mL (≈ 1.63 µM) | 4 µg/mL (≈ 3.26 µM) | 16 µg/mL (≈ 13 µM) |
| CCCCCCC(=O)N[C@H](C(=O)N(CCN)CC(=O)N(CCCc1ccccc1)CC(=O)N[C@H]1CCNC(=O)[C@H](CCCCN)NC(=O)CN(CCCN)C(=O)[C@H](CCCCN)NC(=O)CNC(=O)[C@H](CCCCN)NC1=O)C(C)C [EB13] (Heptanoyl-V[Gly(N-2-aminoethyl)][N(3-phenylpropyl)Gly][Dab]KGK[Gly(N(CH2)3NH2)]K; lactam 4-C) | induced a depolarization of the inner membrane like PMB2 | inhibited by high salt concentrations | 4 µg/mL (≈ 3.5 µM) | > 64 µg/mL | > 64 µg/mL | > 64 µg/mL | inhibited by high salt concentrations | 0.5 µg/mL (≈ 0.438 µM) | 16 µg/mL (≈ 14 µM) | > 64 µg/mL | > 64 µg/mL |
| CCCCCCCC(=O)N[C@@H](CCCCN)C(=O)N(CC(=O)N[C@@H](CCCCN)C(=O)N[C@H]1CCNC(=O)[C@H](CCCCN)NC(=O)CN(C2CCCC2)C(=O)CN(CCN)C(=O)[C@H](CCCCN)NC(=O)[C@H](CC(N)=O)NC1=O)Cc1ccccc1 [EB21] (Octanoyl-K[Nphe]K[Dab]NK[Gly(N-2-aminoethyl)][Gly(N-cPent)]K; lactam 4-C) | induced a depolarization of the inner membrane like PMB2 | inhibited by high salt concentrations | 4 µg/mL (≈ 3.26 µM) | > 64 µg/mL | > 64 µg/mL | > 64 µg/mL | inhibited by high salt concentrations | 1 µg/mL (≈ 0.816 µM) | 16 µg/mL (≈ 13.1 µM) | > 64 µg/mL | > 64 µg/mL |
